Laboratory results as given in patent US8871767B2, “2-arylimidazo[1,2-B]pyridazine, 2-phenylimidazo[1,2-A]pyridine, and 2-phenylimidazo[1,2-A]pyrazine derivatives” (Hengrui (USA) Ltd., priority 2010, dated 2014).
Like-named read-outs stand apart in the source and are kept apart here.

What was measured:
[1] = tested on: Hedgehog pathway activation on 10T1/2/Smo#3 cells (C3H10T1/2 cells transfected with human Smoothened receptor); assay: Hedgehog pathway activation on 10T1/2/Smo#3 cells measured by ALP activity; type: cell-based; details: Mus musculus, C3H 10T1/2, 10T1/2/Smo#3 cells
How it was run: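 Inhibition of alkaline phosphatase induction, read fluorometrically from 4-methylumbelliferyl phosphate conversion, gave IC50 values; CellTiter-Blue tracked viability in parallel. Cells were the human Smo-transfected 10T1/2/Smo#3 pool, stimulated by 10-20% hShh conditioned medium or the Smo agonist SAG (500 nM).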

[2] = tested on: Hedgehog pathway activation (GLi-luciferase reporter) in Shh Light II reporter cells; assay: Hedgehog pathway activation on Shh Light II reporter cells measured by luciferase activity; type: cell-based; details: Mus musculus, Shh Light II
How it was run: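 Shh Light II reporter cells carrying a hedgehog-responsive GLi-luciferase reporter were stimulated either with 500 nM SAG, a direct Smoothened agonist, or with conditioned media containing human Sonic Hedgehog (hShh). Test compounds were evaluated for blocking this pathway activation, quantified by luciferase activity. Cell viability was monitored in parallel with the Celltiter-Blue® assay.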

[3] = hShh activation, ALP activity, read-out: 10T1/2/Smo#3 ALP activity (hShh Activation)
[4] = measured by ALP activity, read-out: ALP (IC50, inhibition of Hedgehog pathway activation)
[5] = SAG activation (500 nM SAG), read-out: Shh Light II luciferase activity (SAG activation)
[6] = hShh activation, read-out: Shh (IC50, inhibition of Hedgehog pathway activation)
[7] = hShh activation, read-out: Shh Light II luciferase activity (hShh activation)

SMILES | IC50 [1, 3] | IC50 [1, 4] | IC50 [2, 5] | IC50 [2, 6] | IC50 [2, 7]
CCOc1nn2cc(-c3ccc(C(F)(F)F)c(NC(=O)C(C)(C)C)c3)nc2c(C)c1C [Example 201, N-(5-(6-ethoxy-7,8-dimethylimidazo[1,2-b]pyridazin-2-yl)-2-(trifluoromethyl)phenyl)pivalamide] |  | 869 nM |  | 402 nM | 
FC(F)(F)c1ccc(-c2cn3nc(Cl)ccc3n2)cc1Br [Example 203, 2-(3-bromo-4-(trifluoromethyl)phenyl)-6-chloroimidazo[1,2-b]pyridazine] |  | 9450 nM |  | > 10000 nM | 
COc1cccc(-c2ccc3nc(-c4ccc(C(F)(F)F)c(NC(=O)C(C)(C)C)c4)cn3n2)c1F [Example 206, N-(5-(6-(2-fluoro-3-methoxyphenyl)imidazo[1,2-b]pyridazin-2-yl)-2-(trifluoromethyl)phenyl)pivalamide] |  | 246 nM |  | 341 nM | 
CCOc1ccc2nc(-c3ccc(C(F)(F)F)c(S(=O)(=O)NC4CC4)c3)cn2n1 [Example 212, N-cyclopropyl-5-(6-ethoxyimidazo[1,2-b]pyridazin-2-yl)-2-(trifluoromethyl)benzenesulfonamide] | 3000 to 30000 nM | 5760 nM | 3000 to 30000 nM | > 10000 nM | 3000 to 30000 nM
CCOc1ccc2nc(-c3ccc(C(F)(F)F)c(S(=O)(=O)NC4CCCCC4)c3)cn2n1 [Example 214, N-cyclohexyl-5-(6-ethoxyimidazo[1,2-b]pyridazin-2-yl)-2-(trifluoromethyl)benzenesulfonamide] |  | 1580 nM |  | > 10000 nM | 
CCOc1ccc2nc(-c3ccc(C(F)(F)F)c(S(=O)(=O)NCc4ccccc4)c3)cn2n1 [Example 215, N-benzyl-5-(6-ethoxyimidazo[1,2-b]pyridazin-2-yl)-2-(trifluoromethyl)benzenesulfonamide] |  | 3120 nM |  | > 10000 nM | 
CCOc1ccc2nc(-c3ccc(C(F)(F)F)c(S(=O)(=O)NC(C)(C)C)c3)cn2n1 [Example 216, N-tert-butyl-5-(6-ethoxyimidazo[1,2-b]pyridazin-2-yl)-2-(trifluoromethyl)benzenesulfonamide] |  | 8280 nM |  | 8570 nM | 
CCOc1ccc2nc(-c3ccc(C(F)(F)F)c(S(=O)(=O)NC)c3)cn2n1 [Example 217, 5-(6-ethoxyimidazo[1,2-b]pyridazin-2-yl)-N-methyl-2-(trifluoromethyl)benzenesulfonamide] |  | 535 nM |  | 6600 nM | 
CCOc1ccc2nc(-c3ccc(C(F)(F)F)c(-c4ccccn4)c3)cn2n1 [Example 218, 6-ethoxy-2-(3-(pyridin-2-yl)-4-(trifluoromethyl)phenyl)imidazo[1,2-b]pyridazine] | 300 to 3000 nM | 2120 nM | 3000 to 30000 nM | 1720 nM | 300 to 3000 nM
Cc1c(NC(=O)C(C)(C)C)cccc1-c1cn2nc(-c3ccccc3F)ccc2n1 [Example 219, N-(3-(6-(2-fluorophenyl)imidazo[1,2-b]pyridazin-2-yl)-2-methylphenyl)pivalamide] | 300 to 3000 nM | 952 nM | 3000 to 30000 nM | 1260 nM | 300 to 3000 nM
Cc1ccc(-c2cn3nc(-c4ccccc4F)ccc3n2)cc1NC(=O)C(C)(C)C [Example 220, N-(5-(6-(2-fluorophenyl)imidazo[1,2-b]pyridazin-2-yl)-2-methylphenyl)pivalamide] |  | 28 nM |  | 52 nM | 
Cc1ccc(-c2cn3nc(-c4cc(C(F)(F)F)ccc4F)ccc3n2)cc1NC(=O)C(C)(C)C [Example 221, N-(5-(6-(2-fluoro-5-(trifluoromethyl)phenyl)imidazo[1,2-b]pyridazin-2-yl)-2-methylphenyl)pivalamide] |  | 105 nM |  | 86 nM | 
CC(C)(C)C(=O)Nc1cc(-c2cn3nc(-c4cc(Cl)ccc4F)ccc3n2)ccc1C(F)(F)F [Example 227, N-(5-(6-(5-chloro-2-fluorophenyl)imidazo[1,2-b]pyridazin-2-yl)-2-(trifluoromethyl)phenyl)pivalamide] |  | 141 nM |  | 65 nM | 

Further compounds by falling IC50 [1, 4], results first:

IC50 [1, 3] | IC50 [1, 4] | IC50 [2, 5] | IC50 [2, 6] | IC50 [2, 7] | SMILES
3000 to 30000 nM | 9530 nM | 3000 to 30000 nM | > 10000 nM | 3000 to 30000 nM | CCOc1ccc2nc(-c3ccc(C(F)(F)F)c(Br)c3)cn2n1 [Example 204, 2-(3-bromo-4-(trifluoromethyl)phenyl)-6-ethoxyimidazo[1,2-b]pyridazine]
 | 6960 nM |  | 1020 nM |  | CCOc1ccc2nc(-c3ccc(C(F)(F)F)c(C(=O)NC(C)(C)C)c3)cn2n1 [Example 211, N-tert-butyl-5-(6-ethoxyimidazo[2,1-f]pyridazin-2-yl)-2-(trifluoromethyl)benzamide]
 | 3860 nM |  | > 10000 nM |  | CCOc1ccc2nc(-c3ccc(C(F)(F)F)c(S(=O)(=O)NCc4ccc(F)cc4)c3)cn2n1 [Example 213, 5-(6-ethoxyimidazo[1,2-b]pyridazin-2-yl)-N-(4-fluorobenzyl)-2-(trifluoromethyl)benzenesulfonamide]
300 to 3000 nM | 1970 nM | 3000 to 30000 nM | 1680 nM | 300 to 3000 nM | Cc1c(Cl)nn2cc(-c3ccc(C(F)(F)F)c(NC(=O)C(C)(C)C)c3)nc2c1C [Example 198, N-(5-(6-chloro-7,8-dimethylimidazo[1,2-b]pyridazin-2-yl)-2-(trifluoromethyl)phenyl)pivalamide]
 | 1320 nM |  | 221 nM |  | Cc1c(-c2ccccn2)nn2cc(-c3ccc(C(F)(F)F)c(NC(=O)C(C)(C)C)c3)nc2c1C [Example 202, N-(5-(7,8-dimethyl-6-(pyridin-2-yl)-imidazo[1,2-b]pyridazin-2-yl)-2-(trifluoromethyl)phenyl)pivalamide]
 | 425 nM |  | 156 nM |  | CC(C)(C)C(=O)Nc1cc(-c2cn3nc(-c4cccc(F)c4)ccc3n2)ccc1C(F)(F)F [Example 222, N-(5-(6-(3-fluorophenyl)imidazo[1,2-b]pyridazin-2-yl)-2-(trifluoromethyl)phenyl)pivalamide]
 | 375 nM |  | 223 nM |  | CC(C)(C)C(=O)Nc1cc(-c2cn3nc(-c4ccc(C(F)(F)F)cc4)ccc3n2)ccc1C(F)(F)F [Example 210, N-(2-(trifluoromethyl)-5-(6-(4-(trifluoromethyl)phenyl)imidazo[1,2-b]pyridazin-2-yl)phenyl)pivalamide]
 | 289 nM |  | 97 nM |  | CC(C)(C)C(=O)Nc1cc(-c2cn3nc(-c4cccc(C(F)(F)F)c4)ccc3n2)ccc1C(F)(F)F [Example 223, N-(2-(trifluoromethyl)-5-(6-(3-(trifluoromethyl)phenyl)imidazo[1,2-b]pyridazin-2-yl)phenyl)pivalamide]
 | 284 nM |  | 281 nM |  | Cc1c(-c2ccccc2F)nn2cc(-c3ccc(C(F)(F)F)c(NC(=O)C(C)(C)C)c3)nc2c1C [Example 200, N-(5-(6-(2-fluorophenyl)-7,8-dimethylimidazo[1,2-b]pyridazin-2-yl)-2-(trifluoromethyl)phenyl)pivalamide]
 | 196 nM |  | 279 nM |  | Cc1ccc(-c2ccc3nc(-c4ccc(C(F)(F)F)c(NC(=O)C(C)(C)C)c4)cn3n2)c(F)c1 [Example 205, N-(5-(6-(2-fluoro-4-methylphenyl)imidazo[1,2-b]pyridazin-2-yl)-2-(trifluoromethyl)phenyl)pivalamide]
 | 140 nM |  | 95 nM |  | CC(C)(C)C(=O)Nc1cc(-c2cn3nc(-c4ccccc4Cl)ccc3n2)ccc1C(F)(F)F [Example 208, N-(5-(6-(2-chlorophenyl)imidazo[1,2-b]pyridazin-2-yl)-2-(trifluoromethyl)phenyl)pivalamide]
 | 111 nM |  | 337 nM |  | Cc1c(-c2cccnc2F)nn2cc(-c3ccc(C(F)(F)F)c(NC(=O)C(C)(C)C)c3)nc2c1C [Example 199, N-(5-(6-(2-fluoropyridin-3-yl)-7,8-dimethylimidazo[1,2-b]pyridazin-2-yl)-2-(trifluoromethyl)phenyl)pivalamide]
 | 97 nM |  | 72 nM |  | CC(C)(C)C(=O)Nc1cc(-c2cn3nc(-c4ccccc4C(F)(F)F)ccc3n2)ccc1C(F)(F)F [Example 209, N-(2-(trifluoromethyl)-5-(6-(2-(trifluoromethyl)phenyl)imidazo[1,2-b]pyridazin-2-yl)phenyl)pivalamide]
< 300 nM | 65 nM | 3000 to 30000 nM | 48 nM | < 300 nM | CC(C)(C)C(=O)Nc1cc(-c2cn3nc(-c4ccccc4C(F)(F)F)ccc3n2)ccc1C#N [Example 225, N-(2-cyano-5-(6-(2-(trifluoromethyl)phenyl)imidazo[1,2-b]pyridazin-2-yl)phenyl)pivalamide]
 | 62 nM |  | 82 nM |  | CC(C)(C)C(=O)Nc1cc(-c2cn3nc(-c4cc(F)ccc4F)ccc3n2)ccc1C(F)(F)F [Example 224, N-(5-(6-(2,5-difluorophenyl)imidazo[1,2-b]pyridazin-2-yl)-2-(trifluoromethyl)phenyl)pivalamide]
< 300 nM | 43 nM | < 300 nM | 43 nM | < 300 nM | CC(C)(C)C(=O)Nc1cc(-c2cn3nc(-c4cc(C(F)(F)F)ccc4F)ccc3n2)ccc1C(F)(F)F [Example 207, N-(5-(6-(2-fluoro-5-(trifluoromethyl)phenyl)imidazo[1,2-b]pyridazin-2-yl)-2-(trifluoromethyl)phenyl)pivalamide]
